Four compounds from patent publication US9174983B2, “Pyrroloquinoline quinone disodium salt crystal and method for producing the same” (MITSUBISHI GAS CHEMICAL COMPANY, INC., priority 2011, dated 2015) can be followed below.

Common to all, as to type: physicochemical
A short description of series [1]: Water content by the Karl Fischer method. As to the method:
The water content (% by weight) of each crystal was determined by the Karl Fischer method.

A short description of series [2]: Heat stability on heating in edible oil (high performance liquid chromatography). The following applies: after heating in edible oil ODO at 150° C. for 30 minutes.
Series [3] can be described thus: Dispersibility test of PQQ disodium crystals in soybean oil (precipitation time). The following applies: 5 mg crystal in 200 μL soybean oil, room temperature, time until all floating crystals precipitated to the bottom, index of dispersibility. The source says:
In this example, the PQQ disodium crystal in Crystalline Form 1 and Crystalline Form 2 was compared in dispersibility in edible oils with the conventional crystals.
After drying, the pressure in the vessel was returned to atmospheric pressure, and immediately the glass vessel was closed with a lid. […] After drying, the temperature within the flask was reduced to room temperature with nitrogen gas refluxed.
Then, they were allowed to stand still at room temperature, and the time period until all of the crystals floating on the soybean oil were precipitated to the bottom of the vessel was measured, which was used as an index of dispersibility for each crystal.

A short description of series [4]: Thermogravimetric analysis of water content. The following applies: crystal formed at 180° C. The source says: However, this crystal was unstable.
Where [5] appears, read: resulting crystal after the drying step, % by weight.

On to `O=C([O-])c1cc(C(=O)[O-])c2c(n1)C(=O)C(=O)c1cc(C(=O)O)[nH]c1-2.[Na+].[Na+]` [Comparative Example 1, reference compound], for which the water content in series [1] (crystal as precipitated with ethanol, before drying) is reported as 14.5%; in series [1] (setting [5]) it was 9.6%.

As for “pyrroloquinoline quinone disodium crystal [Crystalline Form 1]”, the “amount of impurities contained in the crystal” value in series [2] is on record as “did not increase”. The compound also came in with a Precipitation time in series [3] of 30 min. For the same compound, the water content in series [1] (setting [5]) stood at 0.7%; in series [1] (resulting crystal after the drying step, % by weight, listed as Example 2), 2.2%; in series [1] (resulting crystal after the drying step, % by weight, listed as Example 3), 1.9%.

As for “pyrroloquinoline quinone disodium crystal [Crystalline Form 2]”, the water content in series [4] is recorded as around 0%. For the same compound, the Precipitation time in series [3] was found to be 45 min.

Consider “pyrroloquinoline quinone disodium crystal [Precursor crystal, reference compound]”, for which the Precipitation time in series [3] and in series [3] (listed as precursor crystal) was 0.5 min each time. The compound further registered a water content in series [1] (after disposal at 40° C. and relative humidity 75%) of 12.7%.
